Broadly, the IC50 is the concentration needed to halve the response being measured.

Consider 20 molecules from patent US11242334B2, “Heterocyclic compounds as kinase inhibitors, compositions comprising the heterocyclic compound, and methods of use thereof” (JS INNOPHARM (SHANGHAI) LTD, priority 2017, dated 2022).

Bounds are passed on as bounds.

In one experiment the target is T1, human ERK2 (Homo sapiens, UniProt P28482).
T1 construct: recombinantly expressed as GST-tagged full-length protein purified from E. coli; GST; purchased Invitrogen PV3311; host or cells: E. coli
T1 sequence (P28482 whole entry): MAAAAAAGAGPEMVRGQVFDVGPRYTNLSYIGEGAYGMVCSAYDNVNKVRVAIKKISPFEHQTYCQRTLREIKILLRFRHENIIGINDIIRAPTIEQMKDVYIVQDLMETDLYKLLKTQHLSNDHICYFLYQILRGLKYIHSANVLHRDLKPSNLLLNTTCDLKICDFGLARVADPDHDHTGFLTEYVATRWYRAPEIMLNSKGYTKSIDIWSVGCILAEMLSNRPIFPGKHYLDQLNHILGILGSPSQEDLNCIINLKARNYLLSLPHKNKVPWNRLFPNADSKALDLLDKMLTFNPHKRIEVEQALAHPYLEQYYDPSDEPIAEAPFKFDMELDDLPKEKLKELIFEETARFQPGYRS
Kind of experiment: LanthaScreen TR-FRET enzymatic assay, ERK2. To be noted: IC50 values of ERK2 biochemical activity; 5 μM ATP, 400 nM ATF2-GFP substrate. How it is done: Compounds were tested in a LanthaScreen™ time-resolved fluorescence energy transfer (TR-FRET) enzymatic assay from Invitrogen. The assay used human ERK2 (Mitogen Activated Kinase 1, Invitrogen, Cat. PV3311) recombinantly expressed as GST-tagged full-length protein purified from E. coli and activated in vitro with MAP2K1. The substrate was a recombinant truncated version (residues 19-96) of ATF2 fused with Green Fluorescent Protein (Invitrogen, Cat. PV4445). Test compounds were prepared and diluted in DMSO in 3-fold serial dilutions to 100× of the final testing concentrations. The compounds were then further diluted to 4× by the kinase reaction buffer (Invitrogen, Cat. PV3189). The enzymatic reaction for compound testing was performed in a white 384-well polypropylene plate (Packard, Cat. 6005214) with a total reaction volume of 10 μl containing 20 ng/ml ERK2, 400 nM substrate, and 5 μM ATP that is around its Km. The assay started with loading 2.5 μl of ERK2 diluted in kinase reaction buffer to wells, followed by addition of equal volume of 4× compounds for 15-min incubation at the room temperature for pre-treatment. The enzymatic reaction was initiated by addition of 5 μl of mixture of the substrate and ATP prepared in kinase reaction buffer. After one hour reaction, 10 μl mixture of EDTA (final 10 mM) and terbium-labeled anti-pATF2 (pThr71) antibody (final 2 nM) (Invitrogen, Cat. PV4451) prepared in TR-FRET antibody dilution buffer (Invitrogen, Cat. PV3574) was added to stop the enzymatic reaction and produce TR-FRET signals. After 30 minutes of incubation at room temperature, the plate was read in Tecan Infinite F200 Pro with the following settings: Excitation 340 nm (30)/Emission1 495 nm (10)/Emission2 520 nm (25). The TR-FRET values were dimensionless numbers that were calculated as the ratio of the acceptor ([…]) signal to the donor (Terbium) signal. Percent of control was calculated as the percentage of compound-treated vs 1% DMSO vehicle-treated. The dose-response curves were generated and the ICsos were calculated by nonlinear sigmoid curve fitting using GraphPad Prism.
The IC50 values of ERK2 biochemical activity for the examples disclosed herein are listed in Table 3, A: ≤10 nM; B: >10 nM and ≤50 nM; C: >50 nM and ≤100 nM; D.>100 nM.
A general note: TR-FRET usually uses a lanthanide donor and a delayed reading to cut background.

The next experiment deals with Colo205 cell line. Kind of experiment: Colo205 cell proliferation assay (MTT assay, WST-8 readout). It is filed as cell-based. To be noted: Homo sapiens; IC50 values of growth inhibition in Colo 205 cells; 72 hours. As for the experimental part:
Compounds disclosed herein were tested for the inhibition of ERK2 by a Colo205 cell proliferation assay commonly known as MTT assay. In this assay, a complete media was prepared by adding 10% fetal bovine serum to RPMI-1640 medium (Life technology). Colon cancer cells (Colo205 cell line) were added to each of 88 wells of a 96 well plate at a seeding density of 5,000 cells/well/90 μL. The cells were allowed to attach to the plate by incubating at 37° C. for 24 hours. The compound was dissolved in DMSO (SIGMA). A solution of test compound was prepared in complete media by serial dilution to obtain the following concentrations: 500 μM, 150 μM, 50 μM, 15 μM, 5 μM, 1.5 μM, 0.5 μM, 0.15 μM and 0.05 μM. The test compound solution (10 μL) was added to each of 80 cell-containing wells. The final concentrations of the compound were following: 50 μM, 15 μM, 5 μM, 1.5 μM, 0.5 μM, 0.15 μM, 0.05 μM, 0.015 μM and 0.005 μM. The final concentration of DMSO is 0.5%. To the 8 remaining cell-containing wells, only complete media (containing 0.5% DMSO) was added to form a control group in order to measure maximal proliferation. To the remaining 8 empty wells, complete media was added to for a vehicle control group in order to measure background. The plates were incubated at 37° C. for 72 hours. 10 μL WST-8 solution (DOJINDO, Cell Counting KIT-8) was added to each well. The plates were further incubated at 37° C. for 2 hours, and then read for the absorbance using a microplate reader at 450 nm.
The IC50 values of growth inhibition in Colo 205 cells for Compounds disclosed are listed in Table 3, A′: ≤0.5 μM; B′: >0.5 μM and ≤1 μM; C′: >1.0 μM and ≤5 uM; D′: >5 μM.
(In general: Formazan colour is commonly taken as a measure of viable cells.)

On to `Cc1cc(-c2n[nH]c3ccc(-c4ccn(Cc5cccc(F)c5NC(N)=O)c(=O)c4)cc23)ccn1` [Example 87, 1-(2-fluoro-6-((4-(3-(2-methylpyridin-4-yl)-1H-indazol-5-yl)-2-oxopyridin-1(2H)-yl)methyl)phenyl)urea], for which the values for the IC50 against human ERK2 and in the experiment on Colo205 cell line were < 10 nM and > 5000 nM, respectively.
For `Cn1nccc1-c1n[nH]c2ccc(-c3ccn([C@H](CO)c4cccc(Cl)c4)c(=O)c3)cc12` [Example 7, (S)-1-(1-(3-chlorophenyl)-2-hydroxyethyl)-4-(3-(1-methyl-1H-pyrazol-5-yl)-1H-indazol-5-yl)pyridin-2(1H)-one], the IC50 was 10 to 50 nM on human ERK2 and 1000 to 5000 nM in the experiment with Colo205 cell line.
The matching figures for `Cc1n[nH]c2ccc(-c3ccn([C@H](CO)c4cccc(Cl)c4)c(=O)c3)cc12` [Example 3, (S)-1-(1-(3-chlorophenyl)-2-hydroxyethyl)-4-(3-methyl-1H-indazol-5-yl)pyridin-2(1H)-one]: 10 to 50 nM and 1000 to 5000 nM.
The matching figures for `CCOc1ccc(-c2n[nH]c3ncc(-c4ccn([C@H](CO)c5cc(F)cc(Br)c5)c(=O)c4)cc23)cn1` [Example 110, (S)-1-(1-(3-bromo-5-fluorophenyl)-2-hydroxyethyl)-4-(3-(6-ethoxypyridin-3-yl)-1H-pyrazolo[3,4-b]pyridin-5-yl)pyridin-2(1H)-one]: < 10 nM and 500 to 1000 nM.
The matching figures for `CC(C)Oc1ccc(-c2n[nH]c3ccc(-c4ccn([C@H](CO)c5cccc(I)c5)c(=O)c4)cc23)cn1` [Example 48, (S)-1-(2-hydroxy-1-(3-iodophenyl)ethyl)-4-(3-(6-isopropoxypyridin-3-yl)-1H-indazol-5-yl)pyridin-2(1H)-one]: < 10 nM and 500 to 1000 nM.
Regarding `Cc1cc(-c2n[nH]c3ccc(-c4ccn([C@@H](CO)c5cccc(Cl)c5)c(=O)c4)cc23)ccn1` [Example 31, (R)-1-(1-(3-chlorophenyl)-2-hydroxyethyl)-4-(3-(2-methylpyridin-4-yl)-1H-indazol-5-yl)pyridin-2(1H)-one], the IC50 on human ERK2 was < 10 nM; in the experiment on Colo205 cell line, 1000 to 5000 nM.
`Cc1cc(-c2n[nH]c3ccc(-c4ccn(Cc5ccnc(C(F)(F)F)c5)c(=O)c4)cc23)ccn1` [Example 89, 4-(3-(2-methylpyridin-4-yl)-1H-indazol-5-yl)-1-((2-(trifluoromethyl)pyridin-4-yl)methyl)pyridin-2(1H)-one]: the IC50 against human ERK2 is < 10 nM; with Colo205 cell line it was ≤ 500 nM.
The matching figures for `O=c1cc(-c2ccc3[nH]nc(C4CCOCC4)c3c2)ccn1[C@H](CO)c1cccc(Cl)c1` [Example 2, (S)-1-(1-(3-chlorophenyl)-2-hydroxyethyl)-4-(3-(tetrahydro-2H-pyran-4-yl)-1H-indazol-5-yl)pyridin-2(1H)-one]: < 10 nM and 500 to 1000 nM.
The matching figures for `Cc1cc(-c2n[nH]c3ccc(-c4ccn(Cc5cc(F)cc(Cl)c5)c(=O)c4)cc23)ccn1` [Example 58, 1-(3-chloro-5-fluorobenzyl)-4-(3-(2-methylpyridin-4-yl)-1H-indazol-5-yl)pyridin-2(1H)-one]: < 10 nM and 500 to 1000 nM.
On to `Cc1cc(-c2n[nH]c3ncc(-c4ccn(C(C)c5cc(F)cc(Br)c5)c(=O)c4)cc23)ccn1` (stereo not shown) [Example 105, 1-(1-(3-bromo-5-fluorophenyl)ethyl)-4-(3-(2-methylpyridin-4-yl)-1H-pyrazolo[3,4-b]pyridin-5-yl)pyridin-2(1H)-one], for which the values for the IC50 against human ERK2 and in the experiment with Colo205 cell line were < 10 nM and 500 to 1000 nM, respectively.
The matching figures for `Cc1cc(-c2n[nH]c3ccc(-c4ccn([C@H](CO)c5cccc(I)c5)c(=O)c4)cc23)ccn1` [Example 49, (S)-1-(2-hydroxy-1-(3-iodophenyl)ethyl)-4-(3-(2-methylpyridin-4-yl)-1H-indazol-5-yl)pyridin-2(1H)-one]: < 10 nM and ≤ 500 nM.
In the same order, the values of `CC(C)Oc1ccc(-c2n[nH]c3ccc(-c4ccn([C@H](CO)c5cc(F)cc(Br)c5)c(=O)c4)cc23)cn1` [Example 40, (S)-1-(1-(3-bromo-5-fluorophenyl)-2-hydroxyethyl)-4-(3-(6-isopropoxypyridin-3-yl)-1H-indazol-5-yl)pyridin-2(1H)-one] are < 10 nM and ≤ 500 nM.
As to `CNCC(c1ccc(F)c(Cl)c1)n1ccc(-c2ccc3[nH]nc(-c4ccnc(C)c4)c3c2)cc1=O` (stereo not shown) [Example 107, 1-(1-(3-chloro-4-fluorophenyl)-2-(methylamino)ethyl)-4-(3-(2-methylpyridin-4-yl)-1H-indazol-5-yl)pyridin-2(1H)-one], the IC50 is < 10 nM against human ERK2 and ≤ 500 nM with Colo205 cell line.
In the same order, the values of `Cc1cc(-c2n[nH]c3ccc(-c4ccn(Cc5cccc(Cl)c5)c(=O)c4)cc23)ccn1` [Example 53, 1-(3-chlorobenzyl)-4-(3-(2-methylpyridin-4-yl)-1H-indazol-5-yl)pyridin-2(1H)-one] are < 10 nM and 500 to 1000 nM.
In the same order, the values of `Cn1cc(-c2n[nH]c3ncc(-c4ccn([C@H](CO)c5cc(F)cc(Br)c5)c(=O)c4)cc23)cn1` [Example 106, (S)-1-(1-(3-bromo-5-fluorophenyl)-2-hydroxyethyl)-4-(3-(1-methyl-1H-pyrazol-4-yl)-1H-pyrazolo[3,4-b]pyridin-5-yl)pyridin-2(1H)-one] are < 10 nM and 500 to 1000 nM.
The matching figures for `Cc1cc(-c2n[nH]c3ccc(-c4ccn([C@H](CO)c5cccc(Cl)c5)c(=O)c4)nc23)ccn1` [Example 9, (S)-1-(1-(3-chlorophenyl)-2-hydroxyethyl)-4-(3-(2-methyl-pyridin-4-yl)-1H-pyrazolo[4,3-b]pyridin-5-yl)pyridin-2(1H)-one]: < 10 nM and 500 to 1000 nM.
In the case of `Cc1cc(-c2n[nH]c3ccc(-c4ccn([C@H](CO)c5cccc(Cl)c5F)c(=O)c4)cc23)ccn1` [Example 35, (S)-1-(1-(3-chloro-2-fluorophenyl)-2-hydroxyethyl)-4-(3-(2-methylpyridin-4-yl)-1H-indazol-5-yl)pyridin-2(1H)-one], the IC50 was < 10 nM at human ERK2 and ≤ 500 nM in the experiment on Colo205 cell line.
In the same order, the values of `Nc1n[nH]c2ccc(-c3ccn([C@H](CO)c4cccc(Cl)c4)c(=O)c3)cc12` [Example 11, (S)-4-(3-amino-1H-indazol-5-yl)-1-(1-(3-chlorophenyl)-2-hydroxyethyl)pyridin-2(1H)-one] are 10 to 50 nM and > 5000 nM.
In the same order, the values of `Cn1cc(-c2n[nH]c3ccc(-c4ccn(Cc5cc(F)cc(C(F)(F)F)c5)c(=O)c4)cc23)cn1` [Example 92, 1-(3-fluoro-5-(trifluoromethyl)benzyl)-4-(3-(1-methyl-1H-pyrazol-4-yl)-1H-indazol-5-yl)pyridin-2(1H)-one] are < 10 nM and ≤ 500 nM.
In the same order, the values of `Cc1cc(-c2n[nH]c3ccc(-c4ccn(Cc5ccc(F)c(Cl)c5)c(=O)c4)cc23)ccn1` [Example 65, 1-(3-chloro-4-fluorobenzyl)-4-(3-(2-methylpyridin-4-yl)-1H-indazol-5-yl)pyridin-2(1H)-one] are < 10 nM and 500 to 1000 nM.
